# Test results from US7265152B2 (ViroPharma Incorporated, priority 2002, dated 2007).
# Read-outs that look alike come from different tables or passages of the source.
# Legend:
# [1] = test system: HCV replicon (BB7 sequence) in Huh-7-Clone A cells; assay: HCV replicon assay: ELISA of NS5A protein in replicon-containing cells (Inhibition of Viral RNA Replication); type: cell-based; details: Hepatitis C virus, read-out: Replicon
# How it was run: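 Huh-7-Clone A cells carrying subgenomic BB7 HCV replicon (G418-selectable) incubated 72 h with compound. NS5A protein quantified by cell ELISA: glutaraldehyde fixation, anti-NS5A monoclonal plus HRP secondary, TMB read at OD 650 nm. EC50 derived from 8-point serial dilution dose curve.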
# [2] = target: T1, HCV NS5B (Hepatitis C virus genotype 1b, UniProt Q9WMX2); assay: Inhibition of viral RNA-dependent RNA polymerase (RdRp), in vitro biochemical assay; design: species or system HCV genotype 1b virus (BB7); details: read-out: HCV pol-BB7 IC50
# T1 construct: fusion protein, of which the carboxyl terminal 21 amino acids were removed to enhance its solubility; His tag (GSHHHHHH); made in house; host or cells: E. coli
# How it was run: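 Purified recombinant NS5B from a genotype 1b consensus (BB7), His-tagged, E. coli-expressed, with the C-terminal 21 residues deleted. Inhibition of RdRp activity in vitro was measured, and IC50 is the concentration giving 50% inhibition.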
# [3] = HCV replicon assay, ranges of EC50
# [4] = Huh-7-Clone A, NS5A ELISA, 72-hour incubation, ranges of EC50
# [5] = purified His-tagged NS5B (BB7), carboxyl terminal 21 amino acids removed
# [6] = HCV NS5B RdRp, BB7, class symbols A-D
# [7] = HCV NS5B RdRp, BB7, reported as range class
# [8] = ranges of EC50 in HCV replicon assay
structure (smiles),measurement,setting,value
"CNC(=O)c1c(-c2ccc(F)cc2)oc2cc(N(C)S(C)(=O)=O)c(OCc3nnsc3Cl)cc12 [Example 397, 5-(5-Chloro-[1,2,3]thiadiazol-4-ylmethoxy)-2-(4-fluoro-phenyl)-6-(methanesulfonyl-methyl-amino)-benzofuran-3-carboxylic acid methylamide]",EC50,"[1]; HCV replicon assay, ranges of 50% effective concentration (EC50)",< 1000 nM
same,IC50,"[2]; HCV NS5B polymerase, BB7 (genotype 1b), values given as range classes A-D",≤ 500 nM
"CNC(=O)c1c(-c2ccc(F)cc2)oc2cc(C3CCCN3C(=O)NC)c(OC)cc12 (stereo not shown) [Example 377, 2-[2-(4-Fluoro-phenyl)-5-methoxy-3-methylcarbamoyl-benzofuran-6-yl]-pyrrolidine-1-carboxylic acid methylamide]",EC50,[1]; [3],< 10000 nM
same,IC50,"[2]; HCV NS5B RdRp, BB7, activity class",≤ 500 nM
"CNC(=O)c1c(-c2ccc(F)cc2)oc2cc(-c3cc(CO)on3)c(OC)cc12 [Example 40, 2-(4-Fluoro-phenyl)-6-(5-hydroxymethyl-isoxazol-3-yl)-5-methoxy-benzofuran-3-carboxylic acid methylamide]",EC50,[1]; [4],< 1000 nM
same,IC50,[2]; [5],≤ 500 nM
"CNC(=O)c1c(-c2ccc(F)cc2)oc2cc(-c3nnc[nH]3)c(OC(C)C)cc12 [Example 279, 2-(4-Fluoro-phenyl)-5-isopropoxy-6-(4H-[1,2,4]triazol-3-yl)-benzofuran-3-carboxylic acid methylamide]",EC50,[1]; [3],< 30000 nM
same,IC50,[2]; [6],≤ 500 nM
"CNC(=O)c1c(-c2ccc(F)cc2)oc2ccc(OC(F)F)cc12 [Example 7, 5-Difluoromethoxy-2-(4-fluoro-phenyl)-benzofuran-3-carboxylic acid methylamide]",EC50,[1]; [4],< 10000 nM
same,IC50,[2]; [5],500 to 5000 nM
"CNC(=O)c1c(-c2ccc(F)cc2)oc2cc(N3CCOCC3)c(OC3CCCC3)cc12 [Example 173, 5-Cyclopentyloxy-2-(4-fluoro-phenyl)-6-morpholin-4-yl-benzofuran-3-carboxylic acid mehtylamide]",EC50,"[1]; HCV replicon, range of EC50",< 1000 nM
same,IC50,[2]; [7],≤ 500 nM
"CNC(=O)c1c(-c2ccc(F)c(C)c2)oc2ccc(OC)cc12 [Example 71, 2-(4-Fluoro-3-methyl-phenyl)-5-methoxy-benzofuran-3-carboxylic acid methylamide]",EC50,[1]; [4],< 30000 nM
same,IC50,[2]; [5],≤ 500 nM
"CNC(=O)c1c(-c2ccc(F)cc2)oc2cc(CO)c(OC(C)C)cc12 [Example 224, 2-(4-Fluoro-phenyl)-6-hydroxymethyl-5-isopropoxy-benzofuran-3-carboxylic acid methylamide]",EC50,"[1]; HCV replicon, range of EC50",< 10000 nM
same,IC50,[2]; [7],≤ 500 nM
"CNC(=O)c1c(-c2ccc(F)cc2)oc2cc(C=O)c(OC(C)C)cc12 [Example 160, 2-(4-Fluoro-phenyl)-6-formyl-5-isopropoxy-benzofuran-3-carboxylic acid methylamide]",EC50,[1]; [8],< 30000 nM
same,IC50,"[2]; HCV NS5B RdRp, BB7 genotype 1b",≤ 500 nM
"CCNc1cc2oc(-c3ccc(F)cc3)c(C(=O)NC)c2cc1OC(C)C [Example 22, 6-Ethylamino-2-(4-fluoro-phenyl)-5-isopropoxy-benzofuran-3-carboxylic acid methylamide]",EC50,[1]; [4],< 1000 nM
same,IC50,[2]; [5],≤ 500 nM
"CNC(=O)c1c(-c2ccc(F)cc2)oc2cc(N3CCOCC3)c(OCc3cccc(OC)c3)cc12 [Example 210, 2-(4-Fluoro-phenyl)-5-(3-methoxy-benzyloxy)-6-morpholin-4-yl-benzofuran-3-carboxylic acid methylamide]",EC50,"[1]; HCV replicon, range of EC50",< 1000 nM
same,IC50,[2]; [7],≤ 500 nM
"CNC(=O)c1c(-c2ccc(N3CCCC3)cc2)oc2ccc(OC(C)C)cc12 [Example 95, 5-Isopropoxy-2-(4-pyrrolidin-1-yl-phenyl)-benzofuran-3-carboxylic acid methylamide]",EC50,[1]; [8],< 30000 nM
same,IC50,"[2]; HCV NS5B RdRp, BB7 genotype 1b",5000 to 30000 nM
"CNC(=O)c1c(-c2ccc(F)cc2)oc2cc(C(C)=O)c(OC)cc12 [Example 261, 6-Acetyl-2-(4-fluoro-phenyl)-5-methoxy-benzofuran-3-carboxylic acid methylamide]",EC50,[1]; [3],< 1000 nM
same,IC50,[2]; [6],≤ 500 nM
"CNC(=O)c1c(-c2ccc(F)cc2)oc2cc(NS(C)(=O)=O)c(OC(C)C)cc12 [Example 21, 2-(4-Fluoro-phenyl)-5-isopropoxy-6-methanesulfonylamino-benzofuran-3-carboxylic acid methylamide]",EC50,[1]; [4],< 1000 nM
same,IC50,[2]; [5],≤ 500 nM
